Experimental data reported in patent publication US20190225650A1, “PEPTIDOMIMETIC MACROCYCLES AND USE THEREOF IN REGULATING HIF1ALPHA” (AILERON THERAPEUTICS, INC., priority 2013, published 2019).
Bridge positions count the residues as written; N and C are the ends. Square brackets hold non-standard residues; d marks the D form. Peptide text beside a SMILES is read from it. R8 = C=CCCCCCC[C@@](C)(N)C(=O)O; S5 = C=CCCC[C@](C)(N)C(=O)O; Nle = CCCC[C@H](N)C(=O)O

Tests used:
[1] = biological target: T1, flag-tagged HIF1α (AA 786-826) / His6-tagged p300 (AA 323-423) complex (Homo sapiens, UniProt Q09472); test: HIF1α p300 displacement assay (TR FRET, +CHAPS); format: binding; conditions: read-out: IC50 (nM) (HIF1α_p300 Displacement + CHAPS)
T1 construct: His6-tagged p300 (AA 323-423); made in house; host or cells: E. coli (pETDuet vector)
How it was run: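 In this TR-FRET displacement format, peptides compete HIF1α C-terminal transactivation domain off p300-CH. They were preincubated 1 h at room temperature with 300 nM complex in HEPES pH 7.4/NaCl buffer with 7.5 mM CHAPS and 1 mM DTT. Anti-His-D2 (4 nM) and anti-Flag-K (0.5 μM) followed for 2 h, and a one-site fit of the fluorescence ratio gave IC50.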

HRE-bla ME-180 cells [2] = test: Cell proliferation assay (viability, MTT, 1% FBS); format: cell-based, human
How it was run: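 Viable cell number was measured with the CellTiter 96 (MTT) kit after compounds were applied for a 16 h normoxic (21% O2) pretreatment, followed by further normoxic or hypoxic (1% O2) culture. Cells: 2×10^4 ME-180 per well, Opti-MEM + 1% FBS, 0.5% DMSO vehicle.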

HRE-bla ME-180 cells [3] = test: Reporter gene assay (HRE-bla ME-180 HIF reporter, GeneBLAzer); format: cell-based, human; conditions: for EC50: 24 hour normoxia
How it was run: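 A FRET β-lactamase readout of HIF transcription was used. After compound treatment in 0.3% DMSO/media under normoxic conditions, 20 μl of 6× LiveBLAzer-FRET B/G (CCF4-AM) substrate was added. Plates sat 3 hr at room temperature in the dark and were read at 409 Ex/460Em and 409Ex/530Em on a Synergy 2. Inhibition was compared against DMSO vehicle controls, with chetomin as positive control.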

| SMILES | IC50 [1] [nM] | EC50 (HRE-bla ME-180 cells [3]) [µM] | Viability 1% FBS AVG (MTT V3-24 hr Normoxia) (μM) (HRE-bla ME-180 cells [2]) | 18 h Avg % max inhibition at top conc (HIF Rptr-24 hrs normoxia) (μM) (HRE-bla ME-180 cells [3]) |
| --- | --- | --- | --- | --- |
| CCCC[C@@H]1NC(=O)[C@H](CC(C)C)NC(=O)[C@H](C(C)C)NC(=O)[C@@](C)(NC(=O)[C@H](CCC(=O)O)NC(=O)[C@H](CC(=O)O)NC(=O)[C@@H](NC(=O)[C@H](Cc2ccccc2)NC(C)=O)[C@@H](C)CC)CCCC=CCCC[C@@](C)(C(=O)N[C@@H](CC(C)C)C(=O)N[C@H](C(=O)N[C@H](C(=O)N[C@@H](CCC(=O)O)C(=O)N[C@@H](CCC(N)=O)C(=O)N[C@@H](C)C(=O)N[C@@H](CC(C)C)C(N)=O)[C@@H](C)CC)C(C)C)NC1=O [SP-146] (Ac-FIDE[S5]VL[Nle][S5]LVIEQAL-NH2; staple 5-9) | > 700 | > 30 | ++++ (≥30: ++++) | +++ (≤25 but <50: +++) |
| CCCC[C@H](NC(=O)[C@H](CCC(=O)O)NC(=O)[C@]1(C)CCCC=CCCCCCC[C@@](C)(NC(=O)[C@H](CCC(=O)O)NC(=O)[C@H](CC(=O)O)NC(=O)[C@@H](NC(=O)[C@H](Cc2ccccc2)NC(C)=O)[C@@H](C)CC)C(=O)N[C@@H](C(C)C)C(=O)N[C@@H](CC(C)C)C(=O)N[C@@H](CCCC)C(=O)N[C@@H](CO)C(=O)N[C@@H](CC(C)C)C(=O)N[C@@H](C(C)C)C(=O)N1)C(=O)N[C@@H](C)C(=O)N[C@@H](CC(C)C)C(N)=O [SP-195] (Ac-FIDE[R8]VL[Nle]SLV[S5]E[Nle]AL-NH2; staple 5-12) | 400 to 700 | ≤ 5 | ++ (≤5 but <15: ++) | ++++ (≥50: ++++) |
| CC[C@H](C)[C@H](NC(=O)[C@H](Cc1ccccc1)NC(C)=O)C(=O)N[C@@H](CC(=O)O)C(=O)N[C@@H](CCC(=O)O)C(=O)N[C@]1(C)CCCCCCC=CCCC[C@@](C)(C(=O)N[C@@H](CCC(=O)O)C(=O)N[C@@H](CCSC)C(=O)N[C@@H](C)C(=O)N[C@@H](CC(C)C)C(=O)N[C@@H](CC(=O)O)C(N)=O)NC(=O)[C@H](C(C)C)NC(=O)[C@H](CC(C)C)NC(=O)[C@H](CO)NC(=O)[C@H](CCSC)NC(=O)[C@H](CC(C)C)NC(=O)[C@H](C(C)C)NC1=O [SP-176] (Ac-FIDE[R8]VLMSLV[S5]EMALD-NH2; staple 5-12) | > 700 | > 30 | ++++ (≥30: ++++) | ++++ (≥50: ++++) |
| CCCC[C@H](NC(=O)[C@H](CCC(=O)O)NC(=O)[C@@H](NC(=O)[C@@H](NC(=O)[C@H](CC(C)C)NC(=O)[C@]1(C)CCCC=CCCC[C@](C)(NC(=O)[C@H](CCC(=O)O)NC(=O)[C@H](CC(=O)O)NC(=O)[C@H](CO)NC(=O)[C@H](Cc2ccccc2)NC(C)=O)C(=O)N[C@@H](C(C)C)C(=O)N[C@@H](CC(C)C)C(=O)N[C@@H](CCCC)C(=O)N1)C(C)C)[C@@H](C)CC)C(=O)N[C@@H](C)C(=O)N[C@@H](CC(C)C)C(N)=O [SP-154] (Ac-FSDE[S5]VL[Nle][S5]LVIE[Nle]AL-NH2; staple 5-9) | 200 to 400 | > 30 | ++++ (≥30: ++++) | + (<10: +) |
| CCCC[C@@H]1NC(=O)[C@H](CC(C)C)NC(=O)[C@H](C(C)C)NC(=O)[C@@](C)(NC(=O)[C@H](CCC(=O)O)NC(=O)[C@H](CC(=O)O)NC(=O)[C@@H](NC(=O)[C@H](Cc2ccccc2)NC(C)=O)[C@@H](C)CC)CCCC=CCCCC2(CCCC=CCCC[C@](C)(C(=O)N[C@@H](C)C(=O)N[C@@H](C)C(=O)N[C@@H](CC(C)C)C(N)=O)NC(=O)[C@H]([C@@H](C)CC)NC(=O)[C@H](C(C)C)NC(=O)[C@H](CC(C)C)NC2=O)NC1=O (stereo partly shown) [SP-211] | 200 to 400 | > 30 | ++++ (≥30: ++++) | + (<10: +) |

Continued, in another order:

| IC50 [1] [nM] | EC50 (HRE-bla ME-180 cells [3]) [µM] | SMILES | Viability 1% FBS AVG (MTT V3-24 hr Normoxia) (μM) (HRE-bla ME-180 cells [2]) | 18 h Avg % max inhibition at top conc (HIF Rptr-24 hrs normoxia) (μM) (HRE-bla ME-180 cells [3]) |
| --- | --- | --- | --- | --- |
| > 700 | > 30 | CCCC[C@H](NC(=O)[C@H](C)NC(=O)[C@H](CCSC)NC(=O)[C@]1(C)CCCC=CCCC[C@](C)(NC(=O)[C@H](CCSC)NC(=O)[C@H](CC(C)C)NC(=O)[C@@H](NC(=O)[C@H](CCC(=O)O)NC(=O)[C@H](CCC(=O)O)NC(=O)[C@H](CC(=O)O)NC(=O)[C@@H](NC(=O)[C@H](Cc2ccccc2)NC(C)=O)[C@@H](C)CC)C(C)C)C(=O)N[C@@H](CC(C)C)C(=O)N[C@@H](C(C)C)C(=O)N[C@@H]([C@@H](C)CC)C(=O)N1)C(N)=O [SP-227] (Ac-FIDEEVLM[S5]LVI[S5]MA[Nle]-NH2; staple 9-13) | ++++ (≥30: ++++) | ++ (≤10 but <25: ++) |
| > 700 | > 30 | CC[C@H](C)[C@H](NC(=O)[C@H](CCCNC(=N)N)NC(=O)[C@H](CC(=O)O)NC(=O)[C@H](CC(C)C)NC(=O)[C@H](C)NC(=O)[C@H](CCSC)NC(=O)[C@]1(C)CCCC=CCCC[C@](C)(NC(=O)[C@H](CCSC)NC(=O)[C@H](CC(C)C)NC(=O)[C@@H](NC(=O)[C@H](CCCCN)NC(=O)[C@H](CCC(=O)O)NC(=O)[C@H](CC(=O)O)NC(=O)[C@@H](NC(=O)[C@H](Cc2ccccc2)NC(C)=O)[C@@H](C)CC)C(C)C)C(=O)N[C@@H](CC(C)C)C(=O)N[C@@H](C(C)C)C(=O)N[C@@H]([C@@H](C)CC)C(=O)N1)C(N)=O [SP-283] (Ac-FIDEKVLM[S5]LVI[S5]MALDRI-NH2; staple 9-13) | ++++ (≥30: ++++) | +++ (≤25 but <50: +++) |
| 400 to 700 | > 30 | CCCC[C@H](NC(=O)[C@H](CCC(=O)O)NC(=O)[C@]1(C)CCCC=CCCCCCC[C@@](C)(NC(=O)[C@H](CCC(=O)O)NC(=O)[C@H](CC(=O)O)NC(=O)[C@@H](NC(=O)[C@H](CC(N)=O)NC(=O)[C@@H](NC(=O)[C@H](CCC(N)=O)NC(=O)[C@H](CC(=O)O)NC(=O)[C@]2(C)CCCC=CCCC[C@](C)(NC(=O)[C@H](CCC(=O)O)NC(=O)[C@H](CCC(=O)O)NC(=O)CNC(=O)[C@H](CCC(N)=O)NC(=O)[C@H](CC(C)C)NC(=O)[C@H](CC(C)C)NC(C)=O)C(=O)N[C@@H](CC(C)C)C(=O)N[C@@H](CCCNC(=N)N)C(=O)N[C@@H](C)C(=O)N2)C(C)C)[C@@H](C)CC)C(=O)N[C@@H](C(C)C)C(=O)N[C@@H](CC(C)C)C(=O)N[C@@H](CCCC)C(=O)N[C@@H](CO)C(=O)N[C@@H](CC(C)C)C(=O)N[C@@H](C(C)C)C(=O)N1)C(=O)NCC(N)=O [SP-344] (Ac-LLQGEE[S5]LRA[S5]DQVNIDE[R8]VL[Nle]SLV[S5]E[Nle]G-NH2; staple 7-11, 19-26) | ++++ (≥30: ++++) | + (<10: +) |
| > 700 | > 30 | CC[C@H](C)[C@H](NC(=O)[C@H](CCCNC(=N)N)NC(=O)[C@H](CC(=O)O)NC(=O)[C@H](CC(C)C)NC(=O)[C@H](C)NC(=O)[C@H](CCSC)NC(=O)[C@]1(C)CCCC=CCCC[C@](C)(NC(=O)[C@H](CCSC)NC(=O)[C@H](Cc2ccccc2)NC(=O)[C@@H](NC(=O)[C@H](C)NC(=O)[C@H](CCC(N)=O)NC(=O)[C@H](CC(=O)O)NC(=O)[C@@H](NC(=O)[C@H](Cc2ccccc2)NC(C)=O)[C@@H](C)CC)C(C)C)C(=O)N[C@@H](CC(C)C)C(=O)N[C@@H](C(C)C)C(=O)N[C@@H]([C@@H](C)CC)C(=O)N1)C(N)=O [SP-268] (Ac-FIDQAVFM[S5]LVI[S5]MALDRI-NH2; staple 9-13) | ++++ (≥30: ++++) | +++ (≤25 but <50: +++) |
| 400 to 700 | 15 to 30 | CCCC[C@H](NC(=O)[C@H](Cc1ccccc1)NC(=O)[C@@H](NC(=O)[C@H](CCC(=O)O)NC(=O)[C@H](CCC(N)=O)NC(=O)[C@H](CC(=O)O)NC(=O)[C@@H](NC(=O)[C@H](Cc1ccccc1)NC(C)=O)[C@@H](C)CC)C(C)C)C(=O)N[C@@]1(C)CCCC=CCCC[C@@](C)(C(=O)N[C@@H](CCCC)C(=O)N[C@@H](C)C(=O)N[C@@H](CC(C)C)C(=O)N[C@@H](CC(=O)O)C(=O)N[C@@H](CCCNC(=N)N)C(=O)N[C@H](C(N)=O)[C@@H](C)CC)NC(=O)[C@H]([C@@H](C)CC)NC(=O)[C@H](C(C)C)NC(=O)[C@H](CC(C)C)NC1=O [SP-269] (Ac-FIDQEVF[Nle][S5]LVI[S5][Nle]ALDRI-NH2; staple 9-13) | ++++ (≥30: ++++) | +++ (≤25 but <50: +++) |
